{"source": "ChEMBL document CHEMBL1151866", "about": "“Design and synthesis of novel delta opioid receptor agonists and their pharmacologies” (Bioorg Med Chem Lett, 2009)", "key": {"[1]": {"target": "Mu-type opioid receptor (Rattus norvegicus, UniProt P33535)", "sequence (P33535 whole entry)": "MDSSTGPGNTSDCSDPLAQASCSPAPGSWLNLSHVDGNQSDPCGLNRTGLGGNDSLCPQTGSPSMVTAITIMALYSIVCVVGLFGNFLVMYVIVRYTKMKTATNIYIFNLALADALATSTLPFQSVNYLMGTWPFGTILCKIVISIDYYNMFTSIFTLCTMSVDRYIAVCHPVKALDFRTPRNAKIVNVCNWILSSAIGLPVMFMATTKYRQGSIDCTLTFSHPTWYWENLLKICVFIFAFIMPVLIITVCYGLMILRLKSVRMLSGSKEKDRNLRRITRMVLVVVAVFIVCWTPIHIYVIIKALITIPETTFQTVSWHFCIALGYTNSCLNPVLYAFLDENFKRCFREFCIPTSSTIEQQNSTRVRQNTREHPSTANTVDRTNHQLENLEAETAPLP", "test": "Displacement of [3H]DAMGO from mu opioid receptor in rat cerebellum membrane", "assay_type": "cell membranes"}, "[2]": {"target": "T1, Delta-type opioid receptor (Homo sapiens, UniProt P41143)", "T1 sequence (P41143 whole entry)": "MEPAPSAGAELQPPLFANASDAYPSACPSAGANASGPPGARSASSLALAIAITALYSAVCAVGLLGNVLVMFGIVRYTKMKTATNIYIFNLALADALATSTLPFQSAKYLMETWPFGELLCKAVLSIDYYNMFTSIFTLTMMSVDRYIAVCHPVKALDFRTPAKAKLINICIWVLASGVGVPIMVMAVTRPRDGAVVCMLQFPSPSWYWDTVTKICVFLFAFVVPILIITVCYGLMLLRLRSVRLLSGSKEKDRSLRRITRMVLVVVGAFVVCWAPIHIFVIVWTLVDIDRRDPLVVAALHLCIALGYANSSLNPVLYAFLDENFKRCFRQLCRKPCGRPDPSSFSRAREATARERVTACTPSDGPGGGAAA", "test": "Agonist activity at human recombinant delta opioid receptor expressed in HEK293 cells by [35S]GTPgammaS binding assay", "assay_type": "functional, cell-based"}, "[3]": {"species": "Rattus norvegicus", "test": "Selectivity ratio of Ki for mu opioid receptor in rat cerebellum membrane to Ki for delta opioid receptor in rat cerebellum membrane", "assay_type": "cell membranes"}, "[4]": {"target": "Delta-type opioid receptor (Rattus norvegicus, UniProt P33533)", "sequence (P33533 whole entry)": "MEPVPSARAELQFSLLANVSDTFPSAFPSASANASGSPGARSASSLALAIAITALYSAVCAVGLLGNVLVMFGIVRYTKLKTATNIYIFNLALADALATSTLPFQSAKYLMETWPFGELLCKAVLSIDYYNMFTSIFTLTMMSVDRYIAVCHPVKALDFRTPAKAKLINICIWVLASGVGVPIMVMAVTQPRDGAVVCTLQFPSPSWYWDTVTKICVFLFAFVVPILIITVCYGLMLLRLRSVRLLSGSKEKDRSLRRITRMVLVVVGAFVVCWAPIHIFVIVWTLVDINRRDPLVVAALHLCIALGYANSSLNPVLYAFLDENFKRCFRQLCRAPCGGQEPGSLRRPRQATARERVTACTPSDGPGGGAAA", "test": "Displacement of [3H]DADLE from delta opioid receptor in rat cerebellum membrane", "assay_type": "cell membranes"}, "[5]": {"target": "Kappa-type opioid receptor (Cavia porcellus, UniProt P41144)", "sequence (P41144 whole entry)": "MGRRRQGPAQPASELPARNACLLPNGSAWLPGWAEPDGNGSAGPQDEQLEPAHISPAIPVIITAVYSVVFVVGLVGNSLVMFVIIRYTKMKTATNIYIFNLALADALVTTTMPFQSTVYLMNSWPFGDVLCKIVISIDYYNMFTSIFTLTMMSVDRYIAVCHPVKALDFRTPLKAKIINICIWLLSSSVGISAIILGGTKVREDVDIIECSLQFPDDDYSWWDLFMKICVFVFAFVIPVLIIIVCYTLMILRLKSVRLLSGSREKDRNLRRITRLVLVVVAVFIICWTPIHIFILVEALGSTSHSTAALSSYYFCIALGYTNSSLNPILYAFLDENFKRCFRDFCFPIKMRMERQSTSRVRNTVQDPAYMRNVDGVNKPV", "test": "Displacement of [3H]U-69593 from kappa opioid receptor in guinea pig cerebellum", "assay_type": "tissue-based"}, "[6]": {"test": "Selectivity ratio of Ki for kappa opioid receptor in guinea pig cerebellum to Ki for delta opioid receptor in rat cerebellum membrane", "assay_type": "cell membranes"}, "[7]": {"target": "T1, Delta-type opioid receptor", "test": "Ratio of EC50 for drug to EC50 for TAN-67 against human recombinant delta opioid receptor"}, "[8]": {"system": "Mus musculus", "test": "Analgesic activity against acetic acid-induced writhing in sc dosed mouse", "assay_type": "functional"}, "[9]": {"target": "T1, Delta-type opioid receptor", "test": "Agonist activity at human recombinant delta opioid receptor expressed in CHO cells by [35S]GTPgammaS binding assay", "assay_type": "functional, cell-based"}}}
{"smiles": "Oc1ccc2c(c1)[C@]13CCN(CC4CC4)[C@H](C2)[C@@H]1Cc1cc2ccccc2nc1C3", "values": [{"measurement": "Ki", "setting": "[1]", "value": 0.77, "unit": "nM"}, {"measurement": "EC50", "setting": "[2]", "value": 0.018, "unit": "nM"}, {"measurement": "Ratio", "setting": "[3]", "value": 4.1}, {"measurement": "Ki", "setting": "[4]", "value": 0.19, "unit": "nM"}, {"measurement": "Ki", "setting": "[5]", "value": 0.36, "unit": "nM"}, {"measurement": "Ratio", "setting": "[6]", "value": 1.9}, {"measurement": "Ratio EC50", "setting": "[7]", "value": 10}]}
{"smiles": "CN1CC[C@]23Cc4nc5ccccc5cc4C[C@H]2[C@H]1Cc1ccc(O)cc13", "values": [{"measurement": "Ki", "setting": "[1]", "value": 11.5, "unit": "nM"}, {"measurement": "EC50", "setting": "[2]", "value": 0.047, "unit": "nM"}, {"measurement": "Ratio", "setting": "[3]", "value": 82.4}, {"measurement": "Ki", "setting": "[4]", "value": 0.14, "unit": "nM"}, {"measurement": "Ki", "setting": "[5]", "value": 10.2, "unit": "nM"}, {"measurement": "Ratio", "setting": "[6]", "value": 72.9}, {"measurement": "Ratio EC50", "setting": "[7]", "value": 10}]}
{"smiles": "CN1CC[C@]2(c3cccc(O)c3)Cc3nc4ccccc4cc3C[C@H]2C1", "values": [{"measurement": "Ki", "setting": "[1]", "value": 284, "unit": "nM"}, {"measurement": "EC50", "setting": "[2]", "value": 0.7, "unit": "nM"}, {"measurement": "Ratio", "setting": "[3]", "value": 197}, {"measurement": "Ki", "setting": "[4]", "value": 1.44, "unit": "nM"}, {"measurement": "ED50", "setting": "[8]", "value": 31.4, "unit": "mg/kg"}, {"measurement": "Ki", "setting": "[5]", "value": 732, "unit": "nM"}, {"measurement": "Ratio", "setting": "[6]", "value": 509}, {"measurement": "EC50", "setting": "[9]", "value": 1.4, "unit": "nM"}]}
{"smiles": "CC(C)CN1CC[C@]23Cc4nc5ccccc5cc4C[C@H]2[C@H]1Cc1ccc(O)cc13", "values": [{"measurement": "Ki", "setting": "[1]", "value": 23.6, "unit": "nM"}, {"measurement": "EC50", "setting": "[2]", "value": 0.06, "unit": "nM"}, {"measurement": "Ratio", "setting": "[3]", "value": 124}, {"measurement": "Ki", "setting": "[4]", "value": 0.19, "unit": "nM"}, {"measurement": "Ki", "setting": "[5]", "value": 4.41, "unit": "nM"}, {"measurement": "Ratio", "setting": "[6]", "value": 23.2}, {"measurement": "Ratio EC50", "setting": "[7]", "value": 10}]}
